Consider ten compounds from paper PMC3013507 (Anticancer research, 2010).

Read-outs that look alike come from different tables or passages of the source.

One series deals with NF-κB p65 (Homo sapiens, UniProt Q04206). The series can be described thus: ELISA NF-κB p65 inhibition assay. The class given is cell-based. As to conditions: for ELISA NF-κB IC50: NF-κB p65, nuclear extract of HeLa cells treated with compound and TNF-α; for NF-κB inhibitory activity (in words): NF-κB p65 ELISA. In general terms: In an ELISA, binding on a coated surface is turned into a signal by an enzyme label.
Chain of NF-κB p65 (Q04206 whole entry): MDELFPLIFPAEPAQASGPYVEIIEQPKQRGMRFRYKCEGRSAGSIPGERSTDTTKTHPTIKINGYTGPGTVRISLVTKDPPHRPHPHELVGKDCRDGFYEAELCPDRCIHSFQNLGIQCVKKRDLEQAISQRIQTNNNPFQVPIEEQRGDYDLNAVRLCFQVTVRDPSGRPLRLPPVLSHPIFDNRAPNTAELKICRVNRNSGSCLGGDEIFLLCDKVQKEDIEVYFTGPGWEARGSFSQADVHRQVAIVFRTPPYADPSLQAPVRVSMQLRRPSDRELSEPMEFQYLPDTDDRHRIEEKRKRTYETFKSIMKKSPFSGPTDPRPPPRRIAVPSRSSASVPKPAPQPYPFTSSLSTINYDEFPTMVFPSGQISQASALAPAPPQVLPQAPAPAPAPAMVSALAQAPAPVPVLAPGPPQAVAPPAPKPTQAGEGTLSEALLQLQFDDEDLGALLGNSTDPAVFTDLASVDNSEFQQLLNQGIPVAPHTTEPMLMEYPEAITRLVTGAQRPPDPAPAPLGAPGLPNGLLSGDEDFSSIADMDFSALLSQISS

For series [1], the system named is HL-60 cells. The series can be described thus: Cytotoxicity. Conditions: HL-60 leukemia cells; for HL-60 ED50: 3–4 days, SRB.
Series [2] has as its system HT-29 cells. Description: Cytotoxicity. As to conditions: HT-29 colon cancer cells; for HT-29 ED50: 3–4 days, SRB.
The subject of series [3] is HeLa cells. The series can be described thus: Cytotoxicity. Conditions: for HeLa ED50: HeLa cervical cancer cells, 3–4 days, SRB.
In series [4] the test system is HT-29 cells. Description: Reactive oxygen species. The class given is cell-based. As to conditions: for Potentiating effect on intracellular ROS levels in the presence of H2O2: H2O2 50 μM.
Series [5] deals with HL-60 cells.
For series [6], the system named is HT-29 cells.
The subject of series [7] is HeLa cells.
In series [8] the test system is mitochondria transmembrane potential. The series can be described thus: Mitochondria transmembrane potential. Type of series: cell-based. Conditions: 2 h treatment, JC-1.
For another series, the system named is NF-κB. The series can be described thus: NF-κB evaluation in whole cells. Type of series: cell-based. Conditions: HeLa cells, IL-1α stimulation; compound 8 at 5 μg/ml.
In another series the test system is NFAT-1. The series can be described thus: NFAT-1 assay. The class given is cell-based. Conditions: 30 min incubation.
For another series, the system named is P-388 cell line. Conditions: cited from earlier work.

As for `C/C=C(\C)C(=O)O[C@@H]1C[C@@]2(C)[C@H]([C@@H]3C[C@@H]([C@@H]4OC4(C)C)O[C@@H]3OC(C)=O)CC[C@]2(C)[C@@H]2CC=C3C(C)(C)C(=O)C[C@H](O)[C@]3(C)[C@H]21` [Compound 2, bruceajavaninone A], the “ELISA NF-κB IC50” value on NF-κB p65 came to 5.3 µg/mL. For the same compound, in the series on HL-60 cells [1], the “HL-60 ED50” value was greater than 20 µg/mL. Also, the “HT-29 ED50” value in the series on HT-29 cells [2] was greater than 20 µg/mL. Further, the “HeLa ED50” value in the series on HeLa cells [3] was greater than 20 µg/mL.
As to `C/C=C(\C)C(=O)O[C@@H]1C[C@]2(C)C(=CC[C@H]2[C@@H]2C[C@@H]([C@@H]3OC3(C)C)O[C@@H]2OC(C)=O)[C@@]2(C)[C@H]1[C@@]1(C)C=CC(=O)C(C)(C)[C@@H]1C[C@H]2OC(C)=O` [Compound 4, bruceajavanone B], on NF-κB p65, the “ELISA NF-κB IC50” value turned out to be 1.0 µg/mL. Also, the “Potentiating effect on intracellular ROS levels in the presence of H2O2” value with HT-29 cells [4] was “exerted a potentiating effect”. The “Cytotoxicity against HL-60 (in words)” value in the series with HL-60 cells [5] is “selective cytotoxicity against the HL-60 cell line”. Further, the “HL-60 ED50” value in the series on HL-60 cells [1] came out at 1.1 µg/mL. In addition, in the series with HT-29 cells [2], the “HT-29 ED50” value is greater than 20 µg/mL. The “HeLa ED50” value in the series on HeLa cells [3] was greater than 20 µg/mL.
As for `COC(=O)[C@@]12OC[C@]34[C@H]([C@@H](O)[C@@H]1O)[C@@]1(C)CC(=O)C(O)=C(C)[C@@H]1C[C@H]3OC(=O)[C@H](OC(=O)/C=C(\C)C(C)C)[C@@H]24` [Compound 5, bruceantin], at NF-κB p65, the IC50 (usually the midpoint of a concentration-inhibition curve) was 35.7 µM and the “NF-κB inhibitory activity (in words)” value was “moderate NF-κB inhibitory activity”. Besides, in the series with HL-60 cells [1], the “Cytotoxicity against HL-60 (in words)” value is given as “highly cytotoxic” and the “HL-60 ED50” value was found to be 0.0082 µg/mL. Moreover, in the series with HT-29 cells [2], the “Cytotoxicity against HT-29 (in words)” value is listed as “highly cytotoxic” and the “HT-29 ED50” value was determined as 0.012 µg/mL. The “Cytotoxicity against HeLa (in words)” value in the series on HeLa cells [3] (HeLa cells) is “highly cytotoxic”. In the series with HeLa cells [3], the “HeLa ED50” value is 0.016 µg/mL.
Consider `COC(=O)[C@@]12OC[C@]34[C@H]([C@@H](O)[C@@H]1O)[C@@]1(C)CC(=O)C(O)=C(C)[C@@H]1C[C@H]3OC(=O)[C@H](OC(=O)CC(C)C)[C@@H]24` [Compound 6, bruceine A], for which, on NF-κB p65, it took 4.21 µM to reach half-maximal inhibition (IC50) and the “NF-κB inhibitory activity (in words)” value is listed as “moderate NF-κB inhibitory activity”. Besides, the “Cytotoxicity against HT-29 (in words)” value with HT-29 cells [6] is recorded as “highly cytotoxic”. In the series on HeLa cells [7], the “Cytotoxicity against HeLa (in words)” value is recorded as “highly cytotoxic”. Besides, the “Cytotoxicity against HL-60 (in words)” value with HL-60 cells [5] is reported as “highly cytotoxic”. Moreover, in the series with HL-60 cells [1], the “HL-60 ED50” value worked out at 0.069 µg/mL. Besides, the “HT-29 ED50” value in the series with HT-29 cells [2] came out at 1.6 µg/mL. The “HeLa ED50” value with HeLa cells [3] was determined as 0.6 µg/mL.
With `COc1cc([C@H]2Oc3cc(-c4cc(=O)c5c(O)cc(O)cc5o4)ccc3O[C@@H]2CO)ccc1O` [Compound 7, (−)-hydnocarpin], the “ELISA NF-κB IC50” value on NF-κB p65 is 11.5 µg/mL. Also, the “Cytotoxicity against HT-29 (in words)” value in the series with HT-29 cells [6] is listed as “moderate cytotoxicity”. Moreover, in the series on HL-60 cells [5], the “Cytotoxicity against HL-60 (in words)” value was “moderate cytotoxicity”. Also, the “HL-60 ED50” value in the series with HL-60 cells [1] was 2.6 µg/mL. The “HT-29 ED50” value in the series with HT-29 cells [2] was 9.7 µg/mL. Besides, the “HeLa ED50” value in the series on HeLa cells [3] was greater than 20 µg/mL.
As to `COc1cc(-c2cc(=O)c3c(O)cc(O)cc3o2)ccc1O` [Compound 8, chrysoeriol], the “Potentiating effect on intracellular ROS levels in the presence of H2O2” value in the series on HT-29 cells [4] is given as “exerted a potentiating effect”. Also, the “Elevation of intracellular ROS in the absence of H2O2” value with HT-29 cells [4] (compound alone) is listed as “most significant elevation of intracellular ROS”. In addition, the “Effect on mitochondrial transmembrane potential” value in [8] is “able to compromise the integrity of the mitochondrial membrane to a larger extent than the other test compounds”. In addition, in the series with NF-κB, the “Inhibition of NF-κB translocation into the nucleus” value was “showed inhibition of translocation of NF-κB into the nucleus”. The “NFAT translocation from the cytoplasm to the nucleus” value in the series on NFAT-1 is “Induced activation of NFAT was confirmed by its translocation to the nucleus”. Also, the “Activity using the P-388 cell line” value in the series with P-388 cell line is on record as “moderately active”. Besides, in the series with HL-60 cells [1], the “Cytotoxicity against HL-60 (in words)” value is recorded as “selective cytotoxicity against the HL-60 cell line” and the “HL-60 ED50” value turned out to be 0.6 µg/mL. In the series with HT-29 cells [2], the “HT-29 ED50” value is greater than 20 µg/mL. The “HeLa ED50” value with HeLa cells [3] was greater than 20 µg/mL.
Take `Cc1c2ccncc2c(C)c2c1[nH]c1ccccc12` [Ellipticine, ellipticine, reference compound]: the “HL-60 ED50” value in the series with HL-60 cells [1] stood at 1.3 µg/mL. Moreover, the “HT-29 ED50” value in the series on HT-29 cells [2] is 3.5 µg/mL. Besides, the “HeLa ED50” value in the series on HeLa cells [3] came out at 3.6 µg/mL.
`COc1ccc([C@@]23Oc4cc(OC)cc(OC)c4[C@]2(O)[C@H](O)[C@H](C(=O)N(C)C)[C@H]3c2ccccc2)cc1` [Rocaglamide, reference compound]: the “Inhibition of NF-κB translocation into the nucleus” value in the series with NF-κB was “inhibited the translocation”.
Take bruceajavanone A 7-acetate [Compound 1]: on NF-κB p65, the “ELISA NF-κB IC50” value is greater than 20 µg/mL. For the same compound, the “HL-60 ED50” value in the series with HL-60 cells [1] is greater than 20 µg/mL. In addition, the “HT-29 ED50” value with HT-29 cells [2] is greater than 20 µg/mL. Moreover, the “HeLa ED50” value in the series with HeLa cells [3] is greater than 20 µg/mL.
Regarding bruceajavanone C [Compound 3], on NF-κB p65, the “ELISA NF-κB IC50” value was greater than 20 µg/mL. In addition, the “HL-60 ED50” value in the series with HL-60 cells [1] is greater than 20 µg/mL. Also, in the series on HT-29 cells [2], the “HT-29 ED50” value was greater than 20 µg/mL. Further, the “HeLa ED50” value with HeLa cells [3] is greater than 20 µg/mL.
